Measurements taken from patent US20230416247A1, “DRUG-LIKE MOLECULES AND METHODS FOR THE THERAPEUTIC TARGETING OF MICRORNA-21” (University of Washington, priority 2020, published 2023).
Entries after “also recorded” stand apart in the source; their conditions may differ. Where two headings read alike, the source gives them in different places.

Experiments:
pre-miR21 = assay: 1D 1H NMR ligand-detect titration of compounds with pre-miR21 RNA; assay type: binding, human
Method: FIG. 6 compares the binding of representative compounds of the invention (see FIG. 5) to pre-miR21. 1D ^1H NMR ligand-detect titrations of compounds, generated by titrating in increasing concentrations of RNA into a solution containing 100 μM of the relevant compound in buffer containing 50 mM deuterated Tris at pH 6.5, as well as 250 mM NaCl, 50 mM KCl and 2 mM MgCl2. As increasing amounts of compounds are bound to the RNA in the course of the titration, the line width of the NMR signal increases, and the NMR peak height decreases. The fraction of compound bound can be calculated from the decrease in […] relative to an internal standard. Saturation of the curves to a value of 1 indicates the predominant presence of a single site with high binding affinity. Approximate binding constants can be calculated by fitting the data points to a binding isotherm. For reference, the data fit for compound −0052 corresponds to a Kd=200 nM, while compound −0045 corresponds to a Kd=600 nM.
The compounds show a strong pre-miR21 binding capacity.
RNA Transcription. All RNAs for ligand screening and structural or biochemical work were prepared in house using in vitro transcription on a large scale (typically 10 mL). RNA transcription and purification protocols used purified DNA oligonucleotide templates (IDT) and T7 RNA polymerase. Briefly, 1 mL of 8 μM TOP DNA (5′-CTATAGTGAGTCGTATTA-3′ (SEQ ID NO: 1)), corresponding to the phage T7 RNA polymerase promoter region, was annealed to 80 μL of 100 μM template sequences with 13 mM MgCl2, heated to 95° C. for […] then allowed to anneal to room temperature over 20 min. The annealing mixture was incubated with 5 mM of each of the four NTPs (ATP, GTP, UTP and CTP, from Sigma), transcription buffer, 8% PEG-8000 and 35 mM magnesium chloride with 0.4 mg/mL T7 RNA polymerase expressed and purified using established methods. All RNA samples are purified from crude transcriptions by 20% denaturing polyacrylamide gel electrophoresis (PAGE), electroeluted and concentrated by ethanol precipitation. The samples are re-dissolved in 12 mL of high salt wash (700 mM NaCl, 200 mM KCl, in 10 mM potassium phosphate at pH 6.5, with 10 μM EDTA to chelate any divalent ions), concentrated using Centriprep conical concentrators ([…] MWC, Millipore). The RNA was then slowly exchanged into low salt storage buffer (10 mM potassium phosphate at pH 6.5, with 10 mM NaCl and 10 μM EDTA). Prior to NMR experiments, all RNA samples were finally desalted using NAP-10 gravity columns, lyophilized and re-dissolved in ‘screening buffer’ or ‘structure buffer’ (see below), then annealed by heating for 4 min to 90° C. and snap cooling at −20° C.

[1] = tested on: mature miR-21 in HeLa cells; assay: qRT-PCR of mature miR-21 in HeLa cells; assay type: cell-based; details: for decline in levels of mature miR-21: days 4 and 5 of incubation, normalized to no compound; for reduction of all newly synthesized miR-21: worked out from the 20% decrease and miR-21 lifetime of approximately 5 days
Method: FIGS. 12A and 12B compare levels of mature miR-21 in HeLa cells, as measured by standard qRT-PCR after 5 days of incubation in the presence of palbociclib and compounds −0045 (sm1), −0050 (sm3) and −0052 (sm5) (FIG. 12A); and levels of mature miR-21 in HeLa cells were measured by qRT-PCR after 4 days of incubation in the presence of palbociclib (a control) and compounds −0045 (sm1), −0050 (sm3) and −0052 (sm5) (FIG. 12B), normalized to miR-21 levels in the absence of any compound. […] The two panels represent independent duplicates of the same experiment.
HeLa cells have relatively high levels of miR-21, and this cell line was used to evaluate whether addition of the molecules would decrease levels of mature miR-21, as expected for inhibition of miR-21 processing. […] In contrast, compounds −0045, −50 and −52, induce an approximately 20% percent decline in levels of mature miR-21 (FIGS. 12A and 12B; the comparison of FIG. 12A and FIG. 12B provides an indication in the uncertainty of the data). miR-21 is very long lived, with a lifetime of approximately 5 days. […] Similar results were obtained at higher numbers of cells/plate (200 k vs at the start of the experiment), but the experiment could not be extended beyond 2 days because of the very high cell density reached. The observed trends were nonetheless in agreement with the experiments conducted at lower cell density.

PDCD4 in AGS cells = assay: Western blot of PDCD4 in AGS cells; assay type: cell-based, human; details: 48 hours of incubation, relative to DMSO control, normalized to β-actin
Method: Data in FIG. 16B are reported as enhancement of PDCD4 levels, relative to DMSO control (no compound added).
Western blot analysis. Western blot analysis was conducted according to standard protocols. Briefly, proteins were collected from cells and lysed and the Bradford assay was used to measure protein concentrations. Quantification of protein expression was conducted using the image analysis software ImageJ.

[2] = 100 μM compound, 50 mM deuterated Tris pH 6.5, 250 mM NaCl, 50 mM KCl, 2 mM MgCl2, approximate, read-out: Kd (fit of NMR titration data to binding isotherm)
[3] = estimated, FIG. 6, read-out: KD for pre-miR21

| SMILES | Kd (pre-miR21; [2]) | Kd (pre-miR21; [3]) | decline in levels of mature miR-21 [1] | reduction of all newly synthesized miR-21 [1] | levels of PDCD4 (Western blot) (PDCD4 in AGS cells; listed as −0052) | levels of PDCD4 (Western blot) (PDCD4 in AGS cells; listed as −0045) |
| --- | --- | --- | --- | --- | --- | --- |
| O=c1[nH]c(Nc2ccc(N3CCNCC3)cn2)nc2cnccc12 [Compound 30] | 200 nM | 200 nM | approximately 20% | about 60% | an increase was observed; also recorded: increase levels of PDCD4 |  |
| O=c1[nH]c(Nc2ccc(N3CCNCC3)cn2)nc2cccnc12 [Compound 25] | 600 nM | 600 nM | approximately 20% | about 60% |  | an increase was observed; also recorded: increase levels of PDCD4 |
